From PubChem BioAssay (NCI)
“And” between values parts separate entries of the source, which are not always exact repeats. Equal values may be shown once.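 Results reflect a 48-hour exposure of cells in 96-well plates to compound at five concentrations. GI50 marks 50% less growth. Definition used: TGI = concentration required for complete inhibition of growth.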

Assays:
Assay in all cases: inhibition of tumour cell growth, NCI panel, 48 h
HCC-2998 colon = tested on: HCC-2998 colon
SF-268 CNS = tested on: SF-268 CNS
PC-3 prostate = tested on: PC-3 prostate
K-562 leukemia = tested on: K-562 leukemia
UACC-62 melanoma = tested on: UACC-62 melanoma
SW-620 colon = tested on: SW-620 colon
HCT-116 colon = tested on: HCT-116 colon
HCT-15 colon = tested on: HCT-15 colon
T-47D breast = tested on: T-47D breast
HT29 colon = tested on: HT29 colon

Row | Compound | GI50 (HCC-2998 colon) | TGI (HCC-2998 colon) | GI50 (SF-268 CNS) | TGI (SF-268 CNS) | GI50 (PC-3 prostate) | TGI (PC-3 prostate) | GI50 (K-562 leukemia) | TGI (K-562 leukemia) | GI50 (UACC-62 melanoma) | TGI (UACC-62 melanoma) | GI50 (SW-620 colon) | TGI (SW-620 colon) | GI50 (HCT-116 colon) | TGI (HCT-116 colon) [µM] | GI50 (HCT-15 colon) | TGI (HCT-15 colon) | GI50 (T-47D breast) | TGI (T-47D breast) | GI50 (HT29 colon) | TGI (HT29 colon)
1 | COc1cccc2cc(-c3nc(C4CCC(C(=O)O)CC4)n4ncnc(N)c34)[nH]c12 (centres undefined) | 0.451 µM and 0.729 µM | 35.3 µM and > 10 µM | 0.294 µM and 0.301 µM | 19.5 µM and > 10 µM | 0.129 µM and 0.342 µM | 2.03 µM and 4.42 µM | 0.499 µM and 2.63 µM | > 100 µM | 0.18 µM and 0.188 µM | 1.51 µM and 1.83 µM | 1.23 µM and 1.49 µM | > 100 µM | 0.824 µM and 1.08 µM | > 100 | 0.558 µM and 0.973 µM | > 100 µM | 0.045 µM and 0.0505 µM | 0.442 µM and 0.356 µM | 1.2 µM and 2.52 µM | 79.9 µM and > 10 µM
2 | COc1ccc2c(c1)c(-c1nc(-c3cn(C)c4ncccc34)cs1)cn2CCCCN1CCOCC1 | 1.73 µM | 3.77 µM | 1.49 µM | 3.3 µM | 1.12 µM | 3.26 µM | 0.675 µM | 1.61 µM | 1.62 µM | 3.44 µM | 0.745 µM | 1.92 µM | 1.8 µM | 3.91 | 0.627 µM | 1.47 µM | 7.08 µM | 29 µM | 0.766 µM | 1.95 µM
3 | COc1cc(C(=O)Nc2cc(O)c(C/C=C(\C)CCC=C(C)C)c(O)c2)cc2c1O[C@]1(C)CC[C@@H](O)C(C)(C)[C@H]1C2 | 1.49 µM and 2.13 µM | 16.4 µM | 1.1 µM and 0.741 µM | 15.8 µM | 0.0302 µM and 0.0463 µM | 17.8 µM | 0.0359 µM and 0.0659 µM | 2.17 µM and 2.6 µM | 0.0488 µM and 0.0463 µM | 0.803 µM and 1.79 µM | 0.0899 µM and 0.159 µM | 1.84 µM and 15.6 µM | 0.143 µM and 0.185 µM | 7.11 | 0.471 µM and 0.628 µM | 3.38 µM and 3.37 µM | 0.401 µM and 0.69 µM | 4.88 µM | 1.42 µM and 0.955 µM | 5.43 µM and 3.79 µM
4 | Cc1cc(O)c(O)c(Oc2cc(C)cc(O)c2O)c1 | – | > 100 µM | – | 95 µM | – | > 100 µM | – | > 100 µM | – | 56.8 µM | – | > 100 µM | – | 41.1 | – | 29.9 µM | – | 84.9 µM | – | 41.1 µM
5 | COC(=O)c1cc(NC(=O)CN(CCN(CC(=O)O)CC(=O)Nc2ccc(O)c(C(=O)OC)c2)CC(=O)O)ccc1O | 97.4 µM | > 100 µM | 43.2 µM | > 100 µM | 96.2 µM | > 100 µM | 96.4 µM | > 100 µM | 48.2 µM | > 100 µM | 74.9 µM | > 100 µM | 43.9 µM | > 100 | > 100 µM | > 100 µM | 32.7 µM | > 100 µM | > 100 µM | > 100 µM
6 | Nc1ncnc2c1c(C(=O)NO)cn2C1OC(CO)C(O)C1O (centres undefined) | 0.587 µM | 6.83 µM | 0.397 µM | – | 0.286 µM | > 41.9 µM | 0.79 µM | > 100 µM | 0.32 µM | 1.19 µM | 0.252 µM | > 31.7 µM | 0.175 µM | > 23.8 | 0.213 µM | 1.89 µM | 0.0885 µM | 1.39 µM | 0.39 µM | > 100 µM
7 | COc1cc(/C=N/Nc2ncnc3c2cnn3Cc2ccccc2)ccc1O | 15.2 µM | > 25 µM | 5.34 µM | 14.3 µM | 11.7 µM | > 25 µM | > 6.57 µM | > 25 µM | 10.4 µM | > 25 µM | > 25 µM | > 25 µM | 14 µM | > 25 | > 25 µM | > 25 µM | 9.57 µM | > 25 µM | 14.9 µM | > 25 µM
8 | CNC(=O)c1c(NC(=O)c2ccc(C(C)C)cc2)sc2c1CCC(=O)C2 | 0.906 µM | 2.94 µM | 0.443 µM | 2.41 µM | 0.152 µM | 1.32 µM | 0.108 µM | > 100 µM | 0.453 µM | 1.94 µM | 0.125 µM | 1.32 µM | 0.0892 µM | 1.34 | 0.216 µM | 1.47 µM | 0.341 µM | 2.3 µM | 0.338 µM | 1.6 µM
9 | COc1ccc(NC(=O)CC(=O)n2nc(-c3ccccc3)c(N=Nc3ccccc3C)c2-c2ccccc2)cc1 | – | > 100 µM | – | 35.7 µM | – | 32.8 µM | – | > 100 µM | – | 46.6 µM | – | > 62.3 µM | – | 47.9 | – | > 61.3 µM | – | 57.7 µM | – | > 100 µM
10 | C=CCCC(O)c1ccc(CCCCCCCCCCC)o1 (centres undefined) | 18.4 µM | 36.5 µM | 19.3 µM | 43.9 µM | 18.8 µM | 36.6 µM | 38.6 µM | > 100 µM | 12.3 µM | 25 µM | 17 µM | 32.2 µM | 18 µM | 32.2 | 17 µM | 31.5 µM | 13.8 µM | 30.5 µM | 16.1 µM | 33.5 µM
11 | O=C(Nc1cccc(-n2cc(-c3ccncc3)c(-c3ccc(O)c(Cl)c3)n2)c1)c1ccc(N2CCOCC2)c(C(F)(F)F)c1 | 3.44 µM | > 50 µM | > 50 µM | > 50 µM | 2.39 µM | > 50 µM | 1.45 µM | > 50 µM | > 50 µM | > 50 µM | 4.05 µM | > 50 µM | 2.35 µM | > 50 | 1.21 µM | > 50 µM | 2.99 µM | > 50 µM | 2.36 µM | > 50 µM
12 | CCCC(=O)Nc1ncnc2c1ncn2C1OC2COP(=O)(O)OC2C1OC(=O)CCC (centres undefined) | > 1000 µM | > 1000 µM | > 1000 µM | > 1000 µM | > 1000 µM | > 1000 µM | > 1000 µM | > 1000 µM | > 1000 µM | > 1000 µM | > 1000 µM | > 1000 µM | > 1000 µM | > 1000 | > 1000 µM | > 1000 µM | > 1000 µM | > 1000 µM | > 1000 µM | > 1000 µM
13 | Cc1ccc(C(CC(=O)c2ccccc2)C(C(=O)c2ccccc2)C(c2ccc(C)cc2)C2C(=O)NC(=S)NC2=O)cc1 (centres undefined) | 8.68 µM | > 50 µM | 16.8 µM | > 50 µM | 10.4 µM | > 50 µM | 26.7 µM | > 50 µM | 19.5 µM | > 50 µM | 19.4 µM | > 50 µM | 19 µM | > 50 | 17 µM | > 50 µM | 5.78 µM | > 50 µM | 28.1 µM | > 50 µM
